Square brackets hold non-standard residues; d marks the D form. Peptide text beside a SMILES is read from it. ξ: configuration not given here. Ile(3ξ) = CCC(C)[C@H](N)C(=O)O; Thr(3ξ) = CC(O)[C@H](N)C(=O)O; Nle = CCCC[C@H](N)C(=O)O
What was measured:
[1] = MCP-MOD dose-response analysis of citrulline (week 6) in healthy volunteers (Example 7); parameters: species or system human; settings: for MCP step, estimate of the difference: citrulline week 6
Description: The MCP-MOD procedure was applied. This statistical methodology consisted of 2 steps: the multiple comparisons step and the modelling step. The first step of the procedure (MCP) is used to test for a significant dose response by assessing pre-specified candidate models. Once a dose response has been established, the second step (MOD) is used to estimate a dose-response curve and estimation of target doses of interest. Five candidate models were specified:
Linear model with maximum effect for the 10 mg dose
Log-linear model with maximum effect for the 10 mg dose
Dose that induces maximum effect (Emax) model with ED50 of 5 mg
Sigmoidal Emax model with ED50 of 1 mg and hill coefficient (HILL) of 2
Sigmoidal Emax model with ED50 of 5 mg and HILL of 5
A subset of the citrulline data was made with the average pre-value and day 35 to 42=week 6 data. The coefficients were implemented in the mixed model analysis of variance with fixed factors treatment, time and treatment by time, random factor subject, and the average prevalue as covariate. The average pre-value was calculated from all pre-values after screening and before dosing.
The following contrasts are calculated within the model:
For all pharmacodynamic endpoints (citrulline, Bristol stool scale and weight), the pre-value has been used as covariate. The average pre-value was calculated from all pre-values after screening and before dosing, except for the Bristol stool scale, where the screening value was also used to calculate the average baseline. The average pre-value of citrulline was also used as covariate in the MCP-MOD, except in the Sigmoid Emax model. This was addressed by subtracting the pre-value times the slope of the linear model of the MCP part from the values of week 6.

hGLP-2 receptor = target: T1, hGLP-2 receptor (Homo sapiens, UniProt O95838); experiment: hGLP-2 receptor transcriptional reporter gene assay (cAMP-responsive luciferase) in HEK-293 cells (Example 2); type: cell-based
T1 construct: expressed in transfected cells; host or cells: HEK-293 (human embryonic kidney), transient transfection
T1 sequence (O95838 1-553): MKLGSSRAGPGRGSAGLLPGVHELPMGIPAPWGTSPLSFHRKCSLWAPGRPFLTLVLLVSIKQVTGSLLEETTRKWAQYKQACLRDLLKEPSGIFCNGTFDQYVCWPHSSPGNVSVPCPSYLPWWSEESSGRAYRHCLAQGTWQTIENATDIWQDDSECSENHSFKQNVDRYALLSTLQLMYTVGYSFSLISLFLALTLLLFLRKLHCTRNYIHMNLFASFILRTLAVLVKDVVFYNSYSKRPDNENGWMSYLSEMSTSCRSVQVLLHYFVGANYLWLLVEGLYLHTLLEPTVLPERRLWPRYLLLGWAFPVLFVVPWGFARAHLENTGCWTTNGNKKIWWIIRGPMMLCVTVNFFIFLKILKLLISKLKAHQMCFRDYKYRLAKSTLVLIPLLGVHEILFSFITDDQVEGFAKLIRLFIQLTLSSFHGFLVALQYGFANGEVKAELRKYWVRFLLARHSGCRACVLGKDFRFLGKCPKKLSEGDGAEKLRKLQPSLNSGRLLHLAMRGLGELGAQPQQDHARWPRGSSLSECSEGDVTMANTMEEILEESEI
Description: To determine activities of GLP-2 agonists of the present disclosure on the hGLP-2 receptor, a transcriptional reporter gene assay is used. Two constructs are transiently transfected into a human embryonic kidney cell line (HEK-293): an hGLP-2 receptor expression DNA construct and a reporter DNA construct containing intracellular cAMP-responsive promoter elements regulating expression of firefly luciferase. (See for example HimmLer et al., J. Recept. Res., (1993), 13, […] for further guidance on this assay.)
Cells are exposed for 5 hours to serial dilutions of compounds diluted half-log per dose. After exposure to compounds, cells are lysed, luciferase activity is determined, and compound efficacies and EC50 values are determined by non-linear regression analysis. hGLP-2, a naturally occurring 33-amino acid peptide ligand, is used as an internal control in each experiment.

## CCCC[C@H](NC(=O)[C@H](CCC(=O)O)NC(=O)[C@H](CC(=O)O)NC(=O)[C@H](CO)NC(=O)[C@H](Cc1ccccc1)NC(=O)[C@H](CO)NC(=O)CNC(=O)[C@H](CC(=O)O)NC(=O)CNC(=O)[C@@H](N)Cc1c[nH]cn1)C(=O)N[C@H](Cc1ccccc1)C(=O)N[C@H](C(=O)N[C@H](C(=O)N[C@@H](CC(C)C)C(=O)N[C@@H](CC(=O)O)C(=O)N[C@@H](CC(C)C)C(=O)N[C@@H](CC(C)C)C(=O)N[C@@H](C)C(=O)N[C@@H](C)C(=O)N[C@@H](CCCNC(=N)N)C(=O)N[C@@H](CC(=O)O)C(=O)N[C@@H](Cc1ccccc1)C(=O)N[C@H](C(=O)N[C@@H](CC(N)=O)C(=O)N[C@@H](Cc1c[nH]c2ccccc12)C(=O)N[C@@H](CC(C)C)C(=O)N[C@H](C(=O)N[C@@H](CCC(N)=O)C(=O)N[C@H](C(=O)N[C@@H](CCCCN)C(=O)N[C@H](C(=O)N[C@H](C(=O)N[C@@H](CC(=O)O)C(N)=O)C(C)O)C(C)CC)C(C)O)C(C)CC)C(C)CC)C(C)CC)C(C)O (stereo partly drawn) [apraglutide, L-histidyl-glycyl-L-aspartyl-glycyl-L-seryl-L-phenylalanyl-L-seryl-L-aspartyl-L-glutamyl-L-norleucyl-D-phenylalanyl-L-threonyl-Lisoleucyl-L-leucyl-L-aspartyl-L-leucyl-L-leucyl-L-alanyl-L-alanyl-L-arginyl-L-aspartyl-L-phenylalanyl-L-isoleucyl-L-asparaginyl-Ltryptophanyl-L-leucyl-L-isoleucyl-L-glutaminyl-L-threonyl-L-lysyl-L-isoleucyl-L-threonyl-Laspartic acid amide] (H-HGDGSFSDE[Nle][dF][Thr(3ξ)][Ile(3ξ)]LDLLAARDF[Ile(3ξ)]NWL[Ile(3ξ)]Q[Thr(3ξ)]K[Ile(3ξ)][Thr(3ξ)]D-NH2)
[1]; Emax model
  Predicted citrulline change from placebo effect for dose of 1 mg: 0.8535 µg/mL
  Predicted citrulline change from placebo effect for dose of 5 mg: 2.2442 µg/mL
  Predicted citrulline change from placebo effect for dose of 10 mg: 2.8182 µg/mL
  Predicted dose for citrulline change from placebo of 1 μg/mL: 1.2333 mg
  Predicted dose for citrulline change from placebo of 2 μg/mL: 3.8471 mg
  Predicted dose for citrulline change from placebo of 3 μg/mL: 13.1053 mg
[1]; Log-linear model
  Predicted citrulline change from placebo effect for dose of 1 mg: 0.8712 µg/mL
  Predicted citrulline change from placebo effect for dose of 5 mg: 2.1652 µg/mL
  Predicted citrulline change from placebo effect for dose of 10 mg: 2.8604 µg/mL
  Predicted dose for citrulline change from placebo of 1 μg/mL: 1.2249 mg
  Predicted dose for citrulline change from placebo of 2 μg/mL: 4.2011 mg
  Predicted dose for citrulline change from placebo of 3 μg/mL: 11.4325 mg
[1]; Sigmoid Emax model
  Predicted citrulline change from placebo effect for dose of 1 mg: 0.7125 µg/mL
  Predicted citrulline change from placebo effect for dose of 5 mg: 2.3327 µg/mL
  Predicted citrulline change from placebo effect for dose of 10 mg: 2.6946 µg/mL
  Predicted dose for citrulline change from placebo of 1 μg/mL: 1.3606 mg
  Predicted dose for citrulline change from placebo of 2 μg/mL: 3.4042 mg
  Predicted dose for citrulline change from placebo of 2.5 μg/mL: 6.4619 mg
[1]; candidate model Emax with ED50 = 5 mg
  MCP step, estimate of the difference: 2.2150
[1]; candidate model Linear
  MCP step, estimate of the difference: 2.0781
[1]; candidate model Log-linear
  MCP step, estimate of the difference: 2.2125
[1]; candidate model Sigmoid Emax with ED50 = 1 mg and H = 2
  MCP step, estimate of the difference: 2.1663
[1]; candidate model Sigmoid Emax with ED50 = 5 mg and H = 5
  MCP step, estimate of the difference: 2.0713
hGLP-2 receptor
  Agonist activity, potency and selectivity at the GLP-2 receptor, in words: selective, full agonist of the GLP-2 receptor with potency and selectivity comparable to native GLP-2

From patent US11766470B2, “Manufacture, formulation and dosing of apraglutide” (VectivBio AG, priority 2020, dated 2023)
